Calls of active or inactive are those of the source. The calls are words filed in the database; no cut-off is given here.
Assays:
[1] = Acute toxicity in 12 hr fasted ICR mouse assessed as toxic reaction at 2000 mg/kg, po measured daily for 7 days; type: organism-based; settings: in vivo, 168 h, time 7 day
[2] = test system: Mus musculus; assay: Anti-inflammatory activity in C57BL/6 mouse model of inflammatory bowel disease assessed as reduction in DSS-induced crypt loss in colon tissue at 5 to 20 mg/kg, po daily measured after 10 days by hematoxylin and eosin staining based histopathological analysis; type: functional, organism-based; settings: dose 5-20 mg/kg, time 10.0 day
[3] = MRT in Sprague-Dawley rat at 10 mg/kg, po measured for 3 to 1440 mins by HPLC analysis; type: ADME, organism-based; settings: in vivo, time 3-1440 min
[4] = AUC (0 to infinity) in Sprague-Dawley rat at 5 mg/kg, iv measured for 3 to 1440 mins by HPLC analysis; type: ADME, organism-based; settings: in vivo
[5] = test system: Mus musculus; assay: Anti-inflammatory activity in DSS-induced C57BL/6 mouse model of inflammatory bowel disease assessed as increase in IL-10 expression in colon tissue at 5 to 20 mg/kg, po measured after 10 days by western blot analysis; type: functional, organism-based; settings: dose 5-20 mg/kg, time 10.0 day
[6] = target: Cyclin-dependent kinase 8 (Homo sapiens) (UniProt P49336); assay: Binding affinity to CDK8 in human HCT-116 cells assessed as reduction in protease-induced CDK8 degradation at 1 to 4 uM treated for 6 hrs followed by protease treatment for 30 mins by western blot analysis; type: cell-based; settings: dose 1-4 µM, time 390.0 min, DDE = dose-dependent effect
Sequence of Cyclin-dependent kinase 8 (Homo sapiens) (P49336 whole entry): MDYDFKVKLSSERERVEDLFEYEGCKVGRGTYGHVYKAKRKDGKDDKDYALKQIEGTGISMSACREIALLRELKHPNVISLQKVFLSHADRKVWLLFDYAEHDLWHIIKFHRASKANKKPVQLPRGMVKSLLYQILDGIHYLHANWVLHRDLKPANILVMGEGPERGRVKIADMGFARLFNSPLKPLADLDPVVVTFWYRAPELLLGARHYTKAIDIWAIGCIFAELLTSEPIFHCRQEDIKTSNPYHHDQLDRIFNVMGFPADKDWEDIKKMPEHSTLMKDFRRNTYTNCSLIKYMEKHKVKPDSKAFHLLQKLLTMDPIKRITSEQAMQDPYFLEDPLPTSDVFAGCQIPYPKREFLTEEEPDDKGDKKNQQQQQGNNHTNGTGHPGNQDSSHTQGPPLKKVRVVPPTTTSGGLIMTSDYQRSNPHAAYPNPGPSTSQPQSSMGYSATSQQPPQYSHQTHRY

[7] = test system: BMDC; assay: Anti-inflammatory activity against R848-stimulated mouse BMDC cells assessed as upregulation of IL-10 production by ELISA method; type: functional, cell-based
[8] = test system: Mus musculus; assay: Anti-inflammatory activity in C57BL/6 mouse model of inflammatory bowel disease assessed as decrease in DSS-induced ERK phosphorylation in colon tissue at 5 to 20 mg/kg, po measured after 10 days by western blot analysis; type: functional, organism-based; settings: dose 5-20 mg/kg, time 10.0 day, DDE = dose-dependent effect
[9] = test system: Mus musculus; assay: Anti-inflammatory activity in C57BL/6 mouse model of inflammatory bowel disease assessed as reduction in number of DSS-induced inflammatory cells in colon tissue at 5 to 20 mg/kg, po daily measured after 10 days by hematoxylin and eosin staining based histopathological analysis; type: functional, organism-based; settings: dose 5-20 mg/kg, time 10.0 day
[10] = Cmax in Sprague-Dawley rat at 10 mg/kg, po measured for 3 to 1440 mins by HPLC analysis; type: ADME, organism-based; settings: in vivo
[11] = target: T1, Cyclin-dependent kinase 8 (Mus musculus) (UniProt Q8R3L8); assay: Inhibition of CDK8 in R848-stimulated mouse BMDC cells assessed as downregulation of c-Jun phosphorylation at Ser243 at 1 to 4 uM treated for 2 hrs followed by R848 stimulation for 12 hrs by western blot analysis; type: cell-based; settings: dose 1-4 µM, time 14.0 hrs
T1 sequence (whole entry): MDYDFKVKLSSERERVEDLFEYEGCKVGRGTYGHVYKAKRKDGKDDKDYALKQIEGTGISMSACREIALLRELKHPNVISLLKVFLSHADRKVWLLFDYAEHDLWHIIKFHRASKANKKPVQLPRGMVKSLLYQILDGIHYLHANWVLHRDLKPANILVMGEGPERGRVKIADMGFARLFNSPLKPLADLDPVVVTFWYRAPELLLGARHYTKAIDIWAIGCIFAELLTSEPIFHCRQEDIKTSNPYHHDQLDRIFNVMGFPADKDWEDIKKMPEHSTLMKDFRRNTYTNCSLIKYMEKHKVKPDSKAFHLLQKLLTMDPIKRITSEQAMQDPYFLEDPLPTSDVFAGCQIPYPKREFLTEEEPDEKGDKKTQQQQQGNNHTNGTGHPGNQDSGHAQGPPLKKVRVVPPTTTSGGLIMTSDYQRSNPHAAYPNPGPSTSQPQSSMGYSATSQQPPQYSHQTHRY

[12] = Stability in human liver microsomes; type: ADME, Microsome
[13] = target: T2, Toll-like receptor 7 (Mus musculus) (UniProt P58681); assay: Inhibition of TLR7 expression in R848-stimulated mouse BMDC cells at 1 to 4 uM treated for 2 hrs followed by R848 stimulation for 12 hrs by western blot analysis; type: cell-based; settings: dose 1-4 µM, time 14.0 hrs, DDE = dose-dependent effect
T2 sequence (whole entry): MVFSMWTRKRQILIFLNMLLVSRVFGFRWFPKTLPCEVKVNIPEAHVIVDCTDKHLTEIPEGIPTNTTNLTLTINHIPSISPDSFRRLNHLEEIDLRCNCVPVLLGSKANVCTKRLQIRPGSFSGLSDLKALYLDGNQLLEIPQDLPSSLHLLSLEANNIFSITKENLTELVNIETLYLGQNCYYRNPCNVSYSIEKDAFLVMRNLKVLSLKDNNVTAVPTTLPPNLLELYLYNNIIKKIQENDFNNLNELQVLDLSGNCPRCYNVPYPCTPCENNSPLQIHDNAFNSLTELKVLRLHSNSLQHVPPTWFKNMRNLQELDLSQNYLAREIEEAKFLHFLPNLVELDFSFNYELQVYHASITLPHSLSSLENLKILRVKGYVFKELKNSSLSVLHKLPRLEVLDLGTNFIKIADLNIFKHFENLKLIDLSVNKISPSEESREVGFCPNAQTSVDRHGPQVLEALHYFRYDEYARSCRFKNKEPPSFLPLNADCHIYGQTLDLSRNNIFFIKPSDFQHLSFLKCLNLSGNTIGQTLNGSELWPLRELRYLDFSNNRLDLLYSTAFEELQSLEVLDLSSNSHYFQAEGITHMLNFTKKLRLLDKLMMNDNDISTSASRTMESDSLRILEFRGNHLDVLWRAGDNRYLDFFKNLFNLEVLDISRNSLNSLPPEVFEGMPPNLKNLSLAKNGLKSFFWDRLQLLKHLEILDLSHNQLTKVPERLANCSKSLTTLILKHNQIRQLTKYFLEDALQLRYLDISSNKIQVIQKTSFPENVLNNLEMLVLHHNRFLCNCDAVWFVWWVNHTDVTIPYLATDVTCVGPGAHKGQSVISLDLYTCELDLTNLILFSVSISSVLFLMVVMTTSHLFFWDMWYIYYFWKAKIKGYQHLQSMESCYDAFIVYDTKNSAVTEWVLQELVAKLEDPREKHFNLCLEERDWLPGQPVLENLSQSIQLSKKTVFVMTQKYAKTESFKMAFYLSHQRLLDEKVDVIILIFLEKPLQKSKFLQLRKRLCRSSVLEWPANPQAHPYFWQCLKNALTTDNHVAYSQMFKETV

[14] = Tmax in Sprague-Dawley rat at 10 mg/kg, po measured for 3 to 1440 mins by HPLC analysis; type: ADME, organism-based; settings: in vivo, time 3-1440 min
[15] = target: CDK8/Cyclin C (Homo sapiens) (UniProt P49336+P24863); assay: Inhibition of recombinant full length His tagged human CDK8/Cyclin C expressed in Baculovirus at 200 nM incubated for 60 mins in presence of ATP by ADP-Glo kinase assay
[16] = Stability of compound in human liver microsome assessed as intrinsic clearance by HPLC analysis; type: ADME; settings: liver microsomes, read-out: CLH
[17] = test system: Mus musculus; assay: Anti-inflammatory activity in C57BL/6 mouse model of inflammatory bowel disease assessed as decrease in DSS-induced neutrophil infiltration in colon tissue by measuring MPO activity at 5 to 20 mg/kg, po administered for 10 days; type: functional, organism-based; settings: dose 5-20 mg/kg, time 10.0 day, DDE = dose-dependent effect

**Q.** With CCc1ccccc1NC(=O)c1cncc(-c2ccc(C(=O)N3CCNCC3)cc2)c1 as the molecule, how does the Activity [1] read?
**A.** Non-Toxic

**Q.** What about the Activity [2] of the same molecule?
**A.** Active

**Q.** And the MRT [3]?
**A.** 2.03 h

**Q.** And the AUC(0-inf) [4]?
**A.** 642 ng·h/mL

**Q.** And the Activity [5]?
**A.** Active

**Q.** What about the Activity [6] of the same molecule?
**A.** Dde

**Q.** And the Activity [7]?
**A.** Active

**Q.** And the Activity [8]?
**A.** Dde

**Q.** What about the Activity [9] of the same molecule?
**A.** Active

**Q.** What about the Cmax [10] of the same molecule?
**A.** 237 ng/mL

**Q.** And the inhibition [11]?
**A.** Active

**Q.** What about the Stability [12] of the same molecule?
**A.** Stable

**Q.** What about the inhibition [13] of the same molecule?
**A.** Dde

**Q.** What about the Tmax [14] of the same molecule?
**A.** 0.73 h

**Q.** And the inhibition [15]?
**A.** 85%

**Q.** What about the microsomal CLint [16] of the same molecule?
**A.** 5.5 µL/min/mg

**Q.** What about the Activity [17] of the same molecule?
**A.** Dde
